Target: T1, human renin (Homo sapiens, UniProt P00797)
T1 construct: A human plasma pool is used as the source of both the substrate (angiotensinogen) and the enzyme (renin); from tissue; host or cells: human plasma pool
T1 sequence (P00797 67-406): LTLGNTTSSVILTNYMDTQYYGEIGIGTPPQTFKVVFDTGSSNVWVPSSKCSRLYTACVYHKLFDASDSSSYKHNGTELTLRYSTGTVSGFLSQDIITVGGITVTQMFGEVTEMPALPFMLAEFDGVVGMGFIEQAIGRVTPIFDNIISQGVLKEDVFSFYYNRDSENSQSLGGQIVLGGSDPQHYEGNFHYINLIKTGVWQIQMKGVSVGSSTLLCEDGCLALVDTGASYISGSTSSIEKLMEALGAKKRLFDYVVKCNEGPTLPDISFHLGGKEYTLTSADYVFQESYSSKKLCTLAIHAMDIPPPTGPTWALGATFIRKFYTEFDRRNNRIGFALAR
Assay: Plasma renin assay (angiotensin I generated in human plasma pool, RIA)
Format: biochemical
Method: The assay is performed as follows: The test compound (i.e. the inhibitor) is dissolved in dimethylsulfoxide(1mM stock solution) and diluted with an aqueous buffer solution of 270 mM 2-(N-morpholino)ethanesulfonic acid and 1% human serum albumin (pH 5.85, also containing dimercaprol and 8-hydroxyquinoline sulfate in accordance with the instructions of the RIA kit noted below) to give an assay mixture in which the final dimethylsulfoxide content is 1% (v/v).
A human plasma pool is used as the source of both the substrate (angiotensinogen) and the enzyme (renin). The reaction is initiated by the addition of 50 μL of human plasma pool to 50 μL of various concentrations of inhibitor in the 1% dimethylsulfoxide assay buffer. The plasma renin activity is measured by the amount of angiotensin I generated at pH 6.0 following a 2 h incubation at 37°.
Quantitation of angiotensin I is performed by radioinununoassay (RIA kit from New England Nuclear-Dupont, Mississauga, ON, Canada). The enzymatic activity of renin is expressed in ng of angiotensin I generated/mL/2 h. The extent of inhibition of the reaction is determined from the amount of angiotensin I generated in reference to a control prepared without inhibitor. Nonlinear regression analysis is used to calculate the IC50 values, i.e. the molar concentration of the test compound required to cause a 50% inhibition of the enzyme activity.
The following table exemplifies results obtained for compounds of formula 1.

[1] = human plasma pool as source of renin and angiotensinogen, pH 6.0, 2 h at 37°, 1% dimethylsulfoxide
[2] = values in parentheses in the list of other examples, assay not restated there

| Compound | IC50 [1] | IC50 [2] |
| --- | --- | --- |
| CC(C)C[C@H](O)[C@H](O)[C@H](CC1CCCCC1)NC(=O)[C@H](CC1CC1)C[C@H](O)[C@H](O)Cc1ccccc1 [Title compound of example 4, (2R, 4S , 5R)-N-[1(S)-(Cyclohexylmethyl)-2(R), 3(S)-dihydroxy-5methylhexyl]-2-(cyclopropylmethyl)-4,5-dihydroxy-6-phenylhexanamide] | 0.11 µM |  |
| CC(C)C[C@H](O)[C@H](O)[C@H](CC1CCCCC1)NC(=O)[C@H](CC1CC1)[C@@H](O)C[C@H](O)Cc1ccccc1 [Title compound of example 10, (2R,3S,5R)-N-[1(S)-(Cyclohexylmethyl)-2(R), 3(S)-dihydroxy-5-methylhexyl]-2-(cyclopropylmethyl)-3,5-dihydroxy-6-phenylhexanamide] | 0.021 µM |  |
| CC(C)C[C@H](O)[C@H](O)[C@H](CC1CCCCC1)NC(=O)[C@H](CC1CC1)[C@H](O)C[C@@H](O)Cc1ccccc1 [Title compound of example 12, (2R, 3R, 5S)-N-[1(S)-(Cyclohexylmethyl)-2(R), 3(S)-dihydroxy-5-methylhexyl]-2-(cyclopropylmethyl)-3,5-dihydroxy-6-phenylhexanamide] | 1 µM |  |
| CC(C)C[C@H](O)[C@H](O)[C@H](CC1CCCCC1)NC(=O)[C@H](CC1CC1)C[C@@H](O)[C@H](O)Cc1ccccc1 [Corresponding (2R,4R,5R)-isomer of title compound of example 2] | 0.038 µM |  |
| CC(C)C[C@H](O)[C@H](O)[C@H](CC1CCCCC1)NC(=O)[C@H](Cc1cnc[nH]1)C[C@@H](O)[C@H](O)Cc1ccccc1 |  | 0.173 µM |
| Cc1nc(C[C@H](C[C@H](O)[C@@H](O)Cc2ccccc2)C(=O)N[C@@H](CC2CCCCC2)[C@@H](O)[C@@H](O)CC(C)C)cs1 |  | 0.22 µM |
| CC(C)C[C@H](O)[C@H](O)[C@H](CC1CCCCC1)NC(=O)[C@H](CC1CC1)[C@@H](O)C[C@@H](O)Cc1ccccc1 [Title compound of example 13] | 0.175 µM |  |
| CC(C)C[C@H](O)[C@H](O)[C@H](CC1CCCCC1)NC(=O)[C@H](CC1CC1)C[C@H](O)[C@@H](O)Cc1ccccc1 [Title compound of example 2, (2R, 4S, 5S)-N-[1(S)-(Cyclohexylmethyl)-2(R), 3(S)-dihydroxy-5-methylhexyl]-2-(cyclopropylmethyl)-4,5-dihydroxy-6-phenylhexanamide] | 0.022 µM |  |
| CC(C)C[C@H](O)[C@H](O)[C@H](CC1CCCCC1)NC(=O)[C@H](CC1CC1)[C@H](O)C[C@H](O)Cc1ccccc1 [Title compound of example 11, (2R,3R,5R)-N-[1(S)-(Cyclohexylmethyl)-2(R),3(S)-dihydroxy-5-methylhexyl]-2-(cyclopropylmethyl)-3,5-dihydroxy-6-phenylhexanamide] | 0.26 µM |  |
| CC(C)C[C@H](O)[C@H](O)[C@H](CC1CCCCC1)NC(=O)[C@H](CC1CC1)C[C@@H](O)[C@@H](O)Cc1ccccc1 [Title compound of example 5, (2R, 4R, 5S)-N-[1(S)-(Cyclohexylmethyl)-2(R), 3(S)-dihydroxy-5-methylhexyl]-2-(cyclopropylmethyl)-4,5-dihydroxy-6-phenylhexanamide] | 0.048 µM |  |
| CC(C)C[C@H](O)[C@H](O)[C@H](CC1CCCCC1)NC(=O)[C@H](Cc1cccs1)C[C@H](O)[C@@H](O)Cc1ccccc1 |  | 0.485 µM |
